For data set [1], the system named is K562 cells. In words: Cell growth inhibitory effect, K562 cells (Cell counting Kit-8, 72 hours).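 On all read-outs here: Read-out is formazan absorbance at 450 nm from WST-8 reduction after a 3 h color reaction, with K562 and U937 cells grown in 96-well plates.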 Particulars: for IC50: Homo sapiens, K562, 72 h, read-out: K562 cells (IC50 value: μM); for Ratio (U937 cells/K562 cells): IC50 U937 cells / IC50 K562 cells. A general note: Tetrazolium dyes change colour on reduction, which living cells bring about.
The test system of data set [2] is U937 cells. In words: Cell growth inhibitory effect, U937 cells (Cell counting Kit-8, 72 hours). Type of data set: cell-based. The conditions noted are these: Homo sapiens, U-937, BCR-ABL negative U937 cells, WST-8 absorbance, continuation of Table 3, read-out: U937 cells (IC50 value: nμM). As for the experimental part:
The plate was incubated in a CO2 incubator overnight. […] The plate was incubated in a CO2 incubator. After 72 hours, 20 μl

For `Cc1ccc(NC(=O)c2ccc(CN3CCN(C)C(C(N)=O)C3)c(C(F)(F)F)c2)cc1Nc1nccc(-c2cncnc2)n1.Cl` (stereo not shown) [Example 50, 4-(3-carbamoyl-4-methylpiperazin-1-ylmethyl)-3-trifluoromethyl-N-{4-methyl-3-[4-(5-pyrimidinyl)pyrimidin-2-ylamino]phenyl}benzamide hydrochloride], the melting point fell in the range of 203 to 208 °C. In data set [1], the concentration for half-maximal inhibition (IC50) is 0.0046 µM and the “Ratio (U937 cells/K562 cells)” value is given as 3478. Further, the half-maximal inhibitory concentration (IC50) in data set [2] is 16000 nM.

Turning to `Cc1ccc(NC(=O)c2ccc(CN3CC(CN(C)C)C3)c(C(F)(F)F)c2)cc1Nc1nccc(-c2cncnc2)n1.Cl` [Example 54, 4-[3-(dimethylaminomethyl)azetidin-1-ylmethyl]-3-trifluoromethyl-N-{4-methyl-3-[4-(5-pyrimidinyl)pyrimidin-2-ylamino]phenyl}benzamide hydrochloride], the melting point was 142 to 152 °C (dec.). In data set [1], the IC50 came to 0.0096 µM and the “Ratio (U937 cells/K562 cells)” value was found to be 1667. Besides, the IC50 in data set [2] came to 16000 nM.

Turning to `Cc1ccc(NC(=O)c2ccc(CN3CCN[C@H](C)C3)c(C(F)(F)F)c2)cc1Nc1nccc(-c2cncnc2)n1.Cl` [Example 56, (+)-4-((R)-3-methylpiperazin-1-ylmethyl)-3-trifluoromethyl-N-{4-methyl-3-[4-(5-pyrimidinyl)pyrimidin-2-ylamino]phenyl}benzamide hydrochloride], the melting point lay within 254 to 258 °C. Besides, in data set [1], the 50% inhibitory concentration (IC50) was determined as 0.0046 µM and the “Ratio (U937 cells/K562 cells)” value is reported as 957. For the same compound, the half-inhibitory concentration (IC50) in data set [2] turned out to be 4400 nM.

The compound `CCN(CC)[C@H]1CCN(Cc2ccc(C(=O)Nc3ccc(C)c(Nc4nccc(-c5cncnc5)n4)c3)cc2C(F)(F)F)C1.Cl` [Example 57, (−)-4-[(S)-3-(N,N-diethylamino)pyrrolidin-1-ylmethyl]-3-trifluoromethyl-N-{4-methyl-3-[4-(5-pyrimidinyl)pyrimidin-2-ylamino]phenyl}benzamide hydrochloride] displayed a melting point of 200 to 202 °C. For the same compound, in data set [1], the half-inhibitory concentration (IC50) was found to be 0.0058 µM and the “Ratio (U937 cells/K562 cells)” value is reported as 966. The half-maximal inhibitory concentration (IC50) in data set [2] was found to be 5600 nM.

As to `Cc1ccc(NC(=O)c2ccc(CN3CC[C@H](N4CCCC4)C3)c(C(F)(F)F)c2)cc1Nc1nccc(-c2cncnc2)n1.Cl` [Example 58, (−)-4-[(S)-3-(1-pyrrolidinyl)pyrrolidin-1-ylmethyl]-3-trifluoromethyl-N-{4-methyl-3-[4-(5-pyrimidinyl)pyrimidin-2-ylamino]phenyl}benzamide hydrochloride], the melting point is 168 to 171 °C. In addition, in data set [1], the IC50 is 0.0047 µM and the “Ratio (U937 cells/K562 cells)” value turned out to be 2000. Besides, in data set [2], the IC50 worked out at 9400 nM.

For `Cc1ccc(NC(=O)c2ccc(CN3C[C@@H](N(C)C)C[C@H]3C)c(C(F)(F)F)c2)cc1Nc1nccc(-c2cncnc2)n1.Cl` [Example 60, (−)-4-[(2R,4S)-4-(dimethylamino)-2-methylpyrrolidin-1-ylmethyl]-3-trifluoromethyl-N-{4-methyl-3-[4-(5-pyrimidinyl)pyrimidin-2-ylamino]phenyl}benzamide hydrochloride], the melting point lay in the range of 188 to 193 °C. Besides, in data set [1], the half-maximal inhibitory concentration (IC50) was 0.005 µM and the “Ratio (U937 cells/K562 cells)” value was 800. For the same compound, the IC50 in data set [2] came out at 4000 nM.

The compound `Cc1ccc(NC(=O)c2ccc(CN3CCC[C@H](N)C3)c(C(F)(F)F)c2)cc1Nc1nccc(-c2cncnc2)n1.Cl` [Example 62, (+)-4-((S)-3-aminopiperidinomethyl)-3-trifluoromethyl-N-{4-methyl-3-[4-(5-pyrimidinyl)pyrimidin-2-ylamino]phenyl}benzamide hydrochloride] gave a melting point of 193 to 199 °C. For the same compound, in data set [1], the half-inhibitory concentration (IC50) is 0.0014 µM and the “Ratio (U937 cells/K562 cells)” value is 1143. For the same compound, the half-inhibitory concentration (IC50) in data set [2] stood at 1600 nM.

In general, IC50 refers to the point on the concentration scale where inhibition reaches its midpoint. A word on the melting point: it is the temperature of the solid-liquid transition.

For the origin of these results see patent publication US7728131B2, “Amide derivative and medicine” (Nippon Shinyaku Co., Ltd., priority 2003, dated 2010).
